In PubChem BioAssay AID2060484 (Molecular Pharmacology Branch, DTP, NCI, 2025):

System: SUM149PT spheroids with HUVEC/MSC, viability
Assay: Anticancer human tumor SUM149PT cell line growth inhibition [GQUAD];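 also: spheroids exposed to drugs for seven days before readout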;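 as to viability, T/C: percent viability relative to DMSO vehicle control taken as 100%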
Details: for IC50: curve of first compound; for viability, T/C: stronger effect = lower value
Outline: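 Viability of tumor cells grown as complex spheroids with endothelial and stromal cells, exposed to drug combinations. Top concentration at or near clinical Cmax (else 10 microM), diluted in half-log increments.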

[1] = second compound 0.0316 µM, first compound 0.0316 µM
[2] = second compound 0.0316 µM, first compound 0.1 µM
[3] = second compound 0.0316 µM, first compound 0.316 µM
[4] = second compound 0.0316 µM, first compound 1 µM
[5] = second compound 0.0316 µM, first compound 3.16 µM
[6] = second compound 0.0316 µM, first compound 10 µM
[7] = second compound 0.1 µM, first compound 0.0316 µM
[8] = second compound 0.1 µM, first compound 0.1 µM
[9] = second compound 0.1 µM, first compound 0.316 µM
[10] = second compound 0.1 µM, first compound 1 µM
[11] = second compound 0.1 µM, first compound 3.16 µM
[12] = second compound 0.1 µM, first compound 10 µM
[13] = second compound 0.316 µM, first compound 0.0316 µM
[14] = second compound 0.316 µM, first compound 0.1 µM
[15] = second compound 0.316 µM, first compound 0.316 µM
[16] = second compound 0.316 µM, first compound 1 µM
[17] = second compound 0.316 µM, first compound 3.16 µM
[18] = second compound 0.316 µM, first compound 10 µM
[19] = second compound 1 µM, first compound 0.0316 µM
[20] = second compound 1 µM, first compound 0.1 µM
[21] = second compound 1 µM, first compound 0.316 µM
[22] = second compound 1 µM, first compound 1 µM
[23] = second compound 1 µM, first compound 3.16 µM
[24] = second compound 1 µM, first compound 10 µM
[25] = second compound 3.16 µM, first compound 0.0316 µM
[26] = second compound 3.16 µM, first compound 0.1 µM
[27] = second compound 3.16 µM, first compound 0.316 µM
[28] = second compound 3.16 µM, first compound 1 µM
[29] = second compound 3.16 µM, first compound 3.16 µM
[30] = second compound 3.16 µM, first compound 10 µM
[31] = second compound 10 µM, first compound 0.0316 µM
[32] = second compound 10 µM, first compound 0.1 µM
[33] = second compound 10 µM, first compound 0.316 µM
[34] = second compound 10 µM, first compound 1 µM
[35] = second compound 10 µM, first compound 3.16 µM
[36] = second compound 10 µM, first compound 10 µM

Which IC50 (second compound 0.0316 µM) does the source give for `C=CCn1c(=O)c2cnc(Nc3ccc(N4CCN(C)CC4)cc3)nc2n1-c1cccc(C(C)(C)O)n1` + CN(C)c1ccc(Nc2c3ccc(NC(=O)CCN4CCCC4)cc3nc3cc(NC(=O)CCN4CCCC4)ccc23)cc1 here?
The IC50 was 0.196 µM.

And the IC50 (second compound 0.1 µM)?
The IC50 was 0.174 µM.

What about the IC50 (second compound 0.316 µM) of the same compound?
The IC50 was 0.155 µM.

And the IC50 (second compound 1 µM)?
The IC50 was 0.102 µM.

What about the IC50 (second compound 3.16 µM) of the same compound?
Its IC50 is 0.121 µM.

What about the IC50 (second compound 10 µM) of the same compound?
The IC50 was 0.13 µM.

What about the viability, T/C [1] of the same compound?
The viability, T/C was 93.8%.

What about the viability, T/C [2] of the same compound?
Its viability, T/C is 72.7%.

And the viability, T/C [3]?
Its viability, T/C is 32.3%.

And the viability, T/C [4]?
Its viability, T/C is 19.8%.

And the viability, T/C [5]?
Its viability, T/C is 11.4%.

What about the viability, T/C [6] of the same compound?
The viability, T/C was 7.42%.

And the viability, T/C [7]?
The viability, T/C was 92.8%.

What about the viability, T/C [8] of the same compound?
Its viability, T/C is 69.2%.

And the viability, T/C [9]?
The viability, T/C was 28.1%.

And the viability, T/C [10]?
The viability, T/C was 20.1%.

What about the viability, T/C [11] of the same compound?
The viability, T/C was 9.53%.

And the viability, T/C [12]?
Its viability, T/C is 9.35%.

And the viability, T/C [13]?
The viability, T/C was 95.8%.

And the viability, T/C [14]?
Its viability, T/C is 62.1%.

And the viability, T/C [15]?
The viability, T/C was 30%.

And the viability, T/C [16]?
The viability, T/C was 16.4%.

And the viability, T/C [17]?
Its viability, T/C is 8.18%.

And the viability, T/C [18]?
Its viability, T/C is 6.73%.

What about the viability, T/C [19] of the same compound?
Its viability, T/C is 78%.

And the viability, T/C [20]?
Its viability, T/C is 50.4%.

What about the viability, T/C [21] of the same compound?
The viability, T/C was 28.5%.

And the viability, T/C [22]?
The viability, T/C was 16.4%.

What about the viability, T/C [23] of the same compound?
The viability, T/C was 9.65%.

What about the viability, T/C [24] of the same compound?
The viability, T/C was 7.97%.

And the viability, T/C [25]?
Its viability, T/C is 87.7%.

And the viability, T/C [26]?
Its viability, T/C is 54.1%.

And the viability, T/C [27]?
Its viability, T/C is 29.4%.

What about the viability, T/C [28] of the same compound?
The viability, T/C was 17.9%.

And the viability, T/C [29]?
Its viability, T/C is 7.8%.

And the viability, T/C [30]?
The viability, T/C was 7.28%.

What about the viability, T/C [31] of the same compound?
The viability, T/C was 89.1%.

What about the viability, T/C [32] of the same compound?
The viability, T/C was 56.6%.

What about the viability, T/C [33] of the same compound?
The viability, T/C was 28%.

What about the viability, T/C [34] of the same compound?
The viability, T/C was 17.1%.

And the viability, T/C [35]?
Its viability, T/C is 9.36%.

What about the viability, T/C [36] of the same compound?
The viability, T/C was 8.81%.

Which results are given for `CC(C)(O)C1CCC(Nc2ccc3ncc(-c4cccc(C(F)(F)F)c4)n3n2)CC1` (stereo unspecified) + CN(C)c1ccc(Nc2c3ccc(NC(=O)CCN4CCCC4)cc3nc3cc(NC(=O)CCN4CCCC4)ccc23)cc1?
IC50 (second compound 0.0316 µM): > 10 µM; IC50 (second compound 0.1 µM): > 10 µM; IC50 (second compound 0.316 µM): 1.76 µM; IC50 (second compound 1 µM): 1.55 µM; IC50 (second compound 3.16 µM): 1.25 µM; IC50 (second compound 10 µM): 0.789 µM; viability, T/C [1]: 98.7%; viability, T/C [2]: 84.6%; viability, T/C [3]: 75%; viability, T/C [4]: 61.5%; viability, T/C [5]: 53.6%; viability, T/C [6]: 54.2%; viability, T/C [7]: 102%; viability, T/C [8]: 92.8%; viability, T/C [9]: 77.8%; viability, T/C [10]: 58%; viability, T/C [11]: 49.1%; viability, T/C [12]: 54.3%; viability, T/C [13]: 86.4%; viability, T/C [14]: 89.2%; viability, T/C [15]: 76.5%; viability, T/C [16]: 52.8%; viability, T/C [17]: 44.7%; viability, T/C [18]: 50%; viability, T/C [19]: 89.6%; viability, T/C [20]: 82%; viability, T/C [21]: 78.2%; viability, T/C [22]: 57.3%; viability, T/C [23]: 35.9%; viability, T/C [24]: 42.2%; viability, T/C [25]: 81.6%; viability, T/C [26]: 78.6%; viability, T/C [27]: 74.7%; viability, T/C [28]: 54.1%; viability, T/C [29]: 33.8%; viability, T/C [30]: 37.6%; viability, T/C [31]: 78.2%; viability, T/C [32]: 73.1%; viability, T/C [33]: 66.7%; viability, T/C [34]: 47%; viability, T/C [35]: 20.9%; viability, T/C [36]: 18.3%

`CCCS(=O)(=O)Nc1ccc(F)c(C(=O)c2c[nH]c3ncc(-c4ccc(Cl)cc4)cc23)c1F` + CN(C)c1ccc(Nc2c3ccc(NC(=O)CCN4CCCC4)cc3nc3cc(NC(=O)CCN4CCCC4)ccc23)cc1 was tested. Which IC50 (second compound 0.0316 µM) did it give?
The IC50 was 7.63 µM.

What about the IC50 (second compound 0.1 µM) of the same compound?
The IC50 was 7.28 µM.

And the IC50 (second compound 0.316 µM)?
The IC50 was 7.79 µM.

And the IC50 (second compound 1 µM)?
The IC50 was 4.18 µM.

What about the IC50 (second compound 3.16 µM) of the same compound?
The IC50 was 3.09 µM.

And the IC50 (second compound 10 µM)?
Its IC50 is 2.4 µM.

And the viability, T/C [1]?
The viability, T/C was 108%.

And the viability, T/C [2]?
The viability, T/C was 91.9%.

And the viability, T/C [3]?
The viability, T/C was 103%.

What about the viability, T/C [4] of the same compound?
Its viability, T/C is 98.1%.

What about the viability, T/C [5] of the same compound?
The viability, T/C was 74.5%.

What about the viability, T/C [6] of the same compound?
Its viability, T/C is 42.4%.

What about the viability, T/C [7] of the same compound?
The viability, T/C was 95.7%.

What about the viability, T/C [8] of the same compound?
Its viability, T/C is 103%.

What about the viability, T/C [9] of the same compound?
The viability, T/C was 102%.

And the viability, T/C [10]?
The viability, T/C was 100%.

What about the viability, T/C [11] of the same compound?
The viability, T/C was 76.3%.

What about the viability, T/C [12] of the same compound?
The viability, T/C was 40%.

And the viability, T/C [13]?
Its viability, T/C is 96.4%.

And the viability, T/C [14]?
The viability, T/C was 96.2%.

And the viability, T/C [15]?
The viability, T/C was 96.4%.

What about the viability, T/C [16] of the same compound?
Its viability, T/C is 90%.

What about the viability, T/C [17] of the same compound?
Its viability, T/C is 67%.

What about the viability, T/C [18] of the same compound?
Its viability, T/C is 45.3%.

What about the viability, T/C [19] of the same compound?
The viability, T/C was 92.2%.

And the viability, T/C [20]?
The viability, T/C was 84.3%.

What about the viability, T/C [21] of the same compound?
The viability, T/C was 91%.

And the viability, T/C [22]?
Its viability, T/C is 89.7%.

And the viability, T/C [23]?
The viability, T/C was 54.6%.

And the viability, T/C [24]?
The viability, T/C was 35.4%.

And the viability, T/C [25]?
Its viability, T/C is 83.2%.

And the viability, T/C [26]?
Its viability, T/C is 89.6%.

What about the viability, T/C [27] of the same compound?
Its viability, T/C is 86.4%.

And the viability, T/C [28]?
The viability, T/C was 81.7%.

What about the viability, T/C [29] of the same compound?
The viability, T/C was 49.3%.

And the viability, T/C [30]?
Its viability, T/C is 24%.

What about the viability, T/C [31] of the same compound?
Its viability, T/C is 84.8%.

And the viability, T/C [32]?
Its viability, T/C is 80.4%.

And the viability, T/C [33]?
Its viability, T/C is 89.6%.

What about the viability, T/C [34] of the same compound?
Its viability, T/C is 71.1%.

What about the viability, T/C [35] of the same compound?
Its viability, T/C is 43.2%.

What about the viability, T/C [36] of the same compound?
Its viability, T/C is 11.9%.
